Measurements as given in patent US20250295799A1, “ANTIBODY-DRUG CONJUGATES TARGETING GLYPICAN-3 AND METHODS OF USE” (Zymeworks BC Inc., priority 2022, published 2025).

Experiments:
hepatocellular carcinoma = conditions: adults with HCC; cited from earlier work
SK-BR-3 (breast cancer) = assay: In vitro cytotoxicity of camptothecin analogues (CellTiter-Glo); type: cell-based; conditions: Homo sapiens, SK-BR-3, 96 h, read-out: pIC50 SKBR-3 (converted)
Description: (§1) In vitro potency was assessed on multiple cancer cell lines: SK-BR-3 (breast cancer), SKOV-3 (ovarian cancer), Calu-3 (lung cancer), ZR-75-1 (breast cancer) and MDA-MB-468 (breast cancer). Serial dilutions of camptothecin analogues were prepared in RPMI 1640+10% FBS, and 20 μL of each dilution was added to 384-well plates. Cells cultured in log-phase growth were detached by brief incubation in 0.05% Trypsin and resuspended in respective culturing media at 20,000 cells/mL (with the exception of ZR-75 cells, which were resuspended at 10,000 cells/mL). 50 μL of cell suspension was then added to the plates containing test articles. Cells were incubated with test articles for 4 d at 37° C. (with the exception of ZR-75 cells, which were incubated for 5 d). Growth inhibition was assessed by CellTiter-Glo® (Promega Corporation, Madison, WI) and luminescence was measured on a plate reader. IC50 values were determined by GraphPad Prism (GraphPad Software, San Diego CA).

[1] = system: MDA-MB-468 (breast cancer); assay: as above; type: cell-based; conditions: Homo sapiens, MDA-MB-468, 96 h, read-out: pIC50 MDA-MB-468 (converted)
Description: as §1

ZR-75-1 (breast cancer) = assay: as above; type: cell-based; conditions: Homo sapiens, ZR-75-1, 120 h, read-out: pIC50 ZR-75 (converted)
Description: as §1

Calu-3 (lung cancer) = assay: as above; type: cell-based; conditions: Homo sapiens, Calu-3, 96 h, read-out: pIC50 Calu-3 (converted)
Description: as §1

SKOV-3 (ovarian cancer) = assay: as above; type: cell-based; conditions: Homo sapiens, SK-OV-3, 96 h, read-out: pIC50 SKOV-3 (converted)
Description: as §1

Compound | efficacy in clinical trials, in words (hepatocellular carcinoma) | safety in clinical trials, in words (hepatocellular carcinoma) | IC50 (SK-BR-3 (breast cancer)) [nM] | IC50 [1] [nM] | IC50 (ZR-75-1 (breast cancer)) [nM] | IC50 (Calu-3 (lung cancer)) [nM] | IC50 (SKOV-3 (ovarian cancer)) [nM]
codrituzumab: "Codrituzumab, also known as GC33 or RG-7686"; antibody targeting GPC3 tested clinically "as a bivalent IgG"; "reference antibody codrituzumab" | limited efficacy | good safety profile | – | – | – | – | –
CC[C@@]1(O)C(=O)OCc2c1cc1n(c2=O)Cc2c-1nc1cc(F)c(OC)cc1c2CNC(=O)NCc1ccc(N)cc1 [Compound 135, (S)-1-(4-aminobenzyl)-3-((4-ethyl-8-fluoro-4-hydroxy-9-methoxy-3,14-dioxo-3,4,12,14-tetrahydro-1H-pyrano[3′,4′:6,7]indolizino[1,2-b]quinolin-11-yl)methyl)urea] | – | – | 12.3 | 10.7 | 13.2 | – | –
CC[C@@]1(O)C(=O)OCc2c1cc1n(c2=O)Cc2c-1nc1cc(F)c(C)cc1c2CNS(N)(=O)=O [Compound 131, (S)-((4-ethyl-8-fluoro-4-hydroxy-9-methyl-3,14-dioxo-3,4,12,14-tetrahydro-1H-pyrano[3′,4′:6,7]indolizino[1,2-b]quinolin-11-yl)methyl)sulfamide] | – | – | 1.05 | 9.12 | 0.955 | 9.12 | –
CC[C@@]1(O)C(=O)OCc2c1cc1n(c2=O)Cc2c-1nc1cc(F)c(OC)cc1c2CNS(=O)(=O)c1ccc(N)cc1 [Compound 128, (S)-4-amino-N-((4-ethyl-8-fluoro-4-hydroxy-9-methoxy-3,14-dioxo-3,4,12,14-tetrahydro-1H-pyrano[3′,4′:6,7]indolizino[1,2-b]quinolin-11-yl)methyl)benzenesulfonamide] | – | – | 5.25 | 8.32 | 4.27 | – | 18.2
CC[C@@]1(O)C(=O)OCc2c1cc1n(c2=O)Cc2c-1nc1cc(F)c(N)cc1c2CN=[N+]=[N-] [Compound 152, (S)-9-amino-11-(azidomethyl)-4-ethyl-8-fluoro-4-hydroxy-1,12-dihydro-14H-pyrano[3′,4′:6,7]indolizino[1,2-b]quinoline-3,14(4H)-dione] | – | – | 3.24 | 5.01 | – | 1.48 | 2.88
CC[C@@]1(O)C(=O)OCc2c1cc1n(c2=O)Cc2c-1nc1cc(F)c(C)cc1c2CN1CCSCC1CO (stereo partly drawn) [Compound 114, (4S)-4-ethyl-8-fluoro-4-hydroxy-11-((3-(hydroxymethyl)thiomorpholino)methyl)-9-methyl-1,12-dihydro-14H-pyrano[3′,4′:6,7]indolizino[1,2-b]quinoline-3,14(4H)-dione] | – | – | 0.107 | 0.417 | – | 0.0933 | 0.178
CC[C@@]1(O)C(=O)OCc2c1cc1n(c2=O)Cc2c-1nc1cc(F)c(C)cc1c2CN1CCN(c2ccc(N)cc2)CC1 [Compound 108, (S)-11-((4-(4-aminophenyl)piperazin-1-yl)methyl)-4-ethyl-8-fluoro-4-hydroxy-9-methyl-1,12-dihydro-14H-pyrano[3′,4′:6,7]indolizino[1,2-b]quinoline-3,14(4H)-dione] | – | – | 29.5 | 47.9 | 18.6 | 40.7 | 55
CC[C@@]1(O)C(=O)OCc2c1cc1n(c2=O)Cc2c-1nc1cc(F)c(C)cc1c2CN1CCO[C@@H](CO)C1 [Compound 113, (S)-4-ethyl-8-fluoro-4-hydroxy-11-(((R)-2-(hydroxymethyl)morpholino)methyl)-9-methyl-1,12-dihydro-14H-pyrano[3′,4′:6,7]indolizino[1,2-b]quinoline-3,14(4H)-dione] | – | – | 1.95 | 3.39 | 2.19 | 3.02 | 4.27
CC[C@@]1(O)C(=O)OCc2c1cc1n(c2=O)Cc2c-1nc1cc(F)c(C)cc1c2CNS(=O)(=O)c1ccccc1 [Compound 125, (S)-N-((4-ethyl-8-fluoro-4-hydroxy-9-methyl-3,14-dioxo-3,4,12,14-tetrahydro-1H-pyrano[3′,4′:6,7]indolizino[1,2-b]quinolin-11-yl)methyl)benzenesulfonamide] | – | – | 1.32 | 3.8 | 1.32 | 2.82 | 7.08
CC[C@@]1(O)C(=O)OCc2c1cc1n(c2=O)Cc2c-1nc1cc(F)c(C)cc1c2CNS(=O)(=O)c1ccc(N)cc1 [Compound 127, (S)-4-amino-N-((4-ethyl-8-fluoro-4-hydroxy-9-methyl-3,14-dioxo-3,4,12,14-tetrahydro-1H-pyrano[3′,4′:6,7]indolizino[1,2-b]quinolin-11-yl)methyl)benzenesulfonamide] | – | – | 3.31 | 3.8 | 5.25 | 9.33 | 14.5
CC[C@@]1(O)C(=O)OCc2c1cc1n(c2=O)Cc2c-1nc1cc(F)c(C)cc1c2CN1C2CCC1(CO)CC2 [Compound 121] | – | – | 0.148 | 0.269 | – | 0.145 | 0.195
CC[C@@]1(O)C(=O)OCc2c1cc1n(c2=O)Cc2c-1nc1cc(F)c(C)cc1c2CNS(C)(=O)=O [Compound 122, (S)-N-((4-ethyl-8-fluoro-4-hydroxy-9-methyl-3,14-dioxo-3,4,12,14-tetrahydro-1H-pyrano[3′,4′:6,7]indolizino[1,2-b]quinolin-11-yl)methyl)methanesulfonamide] | – | – | 1.12 | 1.1 | 1.29 | 3.72 | 9.12
